Reference: patent US11897918B2, “Compositions and methods to increase production” (priority 2014, dated 2024)
“Also recorded” adds a separate entry of the source.

Legend:
[1] = test system: influenza H3N2 strain IVR-165 (A/Victoria/361/2011); format: cell-based
MDCK cells = assay: Cell viability, VI-CELL trypan blue exclusion; format: cell-based
Experimental: Cell viability assays were performed using MDCK cells treated with 1 uM sulphonamide or DMSO control. Cell viability was monitored over time up to 60 hrs using a VI-CELL machine (Beckman Coulter)(cell viability measured based on trypan blue exclusion). The sulphonamide analog used herein is not a marketed drug, therefore toxicity was conducted to identify cell viability over the course of incubation at the highest tested concentration of 10 μM and 60 hours of contact. […] At least 91% viability is detected in cells treated with sulphonamide.

[2] = test system: virus-infected host cell culture; format: cell-based, influenza; conditions: versus control without compound
[3] = test system: B/Massachusetts/2/2012 (low-expressing); assay: ambr15 mini-bioreactor and shake flask comparison, B strain; format: cell-based, influenza B; conditions: CDM and DM134 media, shake flasks and 15 ml bioreactors
Experimental: The two lead compounds were further tested in the commercially available small-scale bioreactor system, ambr15™ (TAP Biosystems). The ambr15 system mimics the characteristics of classical bioreactors at microscale (10-15 ml), controlled by an automated workstation, which enables the rapid evaluation of multiple bioreactor cultures at microscale.
To test both lead compounds were tested side-by-side under controlled conditions, with two infection media formulations (DM134 and CDM) and two flu strains, A/Victoria/361/2011 (IVR-165) (high-expressing) and B/Massachusetts/2/2012 (low-expressing). The infection parameters used in the experiment were as follows: seeding density was 1.0×10^6 cells/ml or 2.5×10^6 cells/mL; pH was 7.1+/−0.02 (pH control by dual control with 0.05N NaOH and CO2 gas); DO was 50% (range 50-80%), controlled by O2 gas; agitation was 1000 rpm (local control); temperature was 34.0° C., locally monitored with bioreactor controller probe; vessel type was Spargeless, extended temperature vessels; and, aeration rate during run was 1 mL/min.
The quantification of HA was carried out by ELISA then was subsequently confirmed by HPLC. It was also shown that AFZ077 was able to boost HA yield in the DM134 medium with both low (1×10^6 per mL) and high (2.5×10^6 per mL) infection cell densities in this system. […] Overall, greater enhancement effect seen for low-expressing strains. […]

[4] = test system: A/Victoria/361/2011 (IVR-165) (high-expressing); assay: ambr15 mini-bioreactor and shake flask comparison, A strain; format: cell-based, influenza A H3N2; conditions: CDM and DM134 media, shake flasks and 15 ml bioreactors; listed as AFZ077
A and B strains = format: cell-based, influenza; conditions: DM134 medium, 2.5×10^6 per mL
B/Massachusetts/02/2012 = assay: Ambr 250 mL bioreactor, B strain; format: cell-based, influenza B; conditions: any of the doses tested, ambr250
Experimental: FIG. 13 provides a graph showing HA yields in the B strain tested with BYF589 at concentrations as indicated.
FIG. 14 provides a graph showing HA yields in the B strain tested with AFZ077 at concentrations as indicated.
The results were confirmed using 3 different viruses (a high-, medium-, and poor-expressing strains). […] To confirm these findings in a larger-scale system, TD Ambr™ 250 mL bioreactors were employed. Both of the lead compounds (as well as DMSO alone as negative control, and, no compound/no DMSO as double-negative control) were tested with a high- and low-expressing strains to determine if the observed enhancement in the small-scale cultures can be reproduced in a larger-scale system. The following parameters were used: Spent DM134:Fresh PFM (1:3); Virus Strains were A/Victoria/361/2011 (IVR-165) and B/Massachusetts/02/2012; MOI was 10^−5 for A/Victoria IVR-165 and 10^−4 for B/Massachusetts; ICD: 2.0e6-3.0e6 cells/mL; N-1 Process: 1B (no Medium Exchange); and, Harvest Time was 65-72 hours post-infection. HA yields were measured by two methods: RP-HPLC and HA-ELISA. […] Note that the error bars represent one standard deviation from the mean, to illustrate variability of the HA-ELISA assay between assay repeats.

5HT7 receptor = biological target: T1, 5HT7 receptor (Canis lupus familiaris, UniProt A0A8I3S709); assay: Dependence of HA enhancement on 5HT7 receptor activity; format: cell-based; conditions: B/Mass in DM134 media, 65 hrs HA yield by ELISA
T1 construct: endogenous in cells; host or cells: MDCK 33016PF suspension cells (inferred)
T1 sequence (A0A8I3S709 entry or part of it): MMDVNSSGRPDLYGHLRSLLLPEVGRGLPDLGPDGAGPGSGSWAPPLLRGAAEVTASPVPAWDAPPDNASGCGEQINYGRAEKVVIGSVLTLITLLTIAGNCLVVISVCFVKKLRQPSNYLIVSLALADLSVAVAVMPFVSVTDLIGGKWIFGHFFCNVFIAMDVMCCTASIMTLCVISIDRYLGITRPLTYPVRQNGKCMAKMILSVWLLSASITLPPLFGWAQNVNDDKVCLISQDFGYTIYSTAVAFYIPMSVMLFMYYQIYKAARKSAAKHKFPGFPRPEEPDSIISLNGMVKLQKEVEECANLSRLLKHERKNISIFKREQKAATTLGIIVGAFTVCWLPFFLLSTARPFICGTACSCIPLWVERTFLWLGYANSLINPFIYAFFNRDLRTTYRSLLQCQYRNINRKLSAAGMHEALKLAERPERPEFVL
From the text: FIG. 15 provides a graph showing that Flu HA yield enhancement by AFZ077 is dependent on decreasing activity of the 5HT7 receptor. Flu B strain (B/Mass) in DM134 media; 65 hrs HA yield by ELISA (μg/ml).
Studies based on Formula 8 (e.g., Compound E) were expanded to identify potential compounds that may share certain mechanisms of action, as summarized in Table 5 below.

[5] = 0 and 60 hr, mass spec
cellular cholesterol = assay: Total cellular cholesterol (Amplex Red); format: cell-based
Experimental: Possible effects of BYF589 as well as various enzyme inhibitors of the pathway on the cell viability and total cellular cholesterol levels were examined. Tested samples included DMSO, BYF589 (1 μM), MEV (100 μM), FTI (0.5 μM), ZA (1 μM) and GTI (0.5 μM).
Free cholesterol is oxidized by cholesterol oxidase to form a cholesterol ketone and H2O2, which then reacts with Amplex Red+HRP to produce the fluorescent product resorufin.

[6] = test system: influenza in MDCK 33016PF cells; format: cell-based; conditions: MEV plus BYF
MDCK 33016PF cells = conditions: 24 hours; BYF589 1 μM, MEV 100 μM, FTI 0.5 μM, ZA 1 μM, GTI 0.5 μM
influenza H3N2 virus = conditions: MOI of 10^−3, 24 hours post infection; cited from earlier work
Subtype A/Texas X223A = format: cell-based, influenza A; conditions: 0.05 μM
Subtype AH3N2 = assay: SAR study of analogues, HA-ELISA; conditions: 0.05 μM, FIG. 7

Cc1cccc(S(=O)(=O)N2CCC[C@@H]2CCN2CCC(C)CC2)c1 [Compound E]
HA yield before the decrease (earlier addition) [1]: about 20 μg/ml
HA yield, compound added 6 hours post infection [1]: about 5 μg/ml
impact on cell viability (MDCK cells; monitored up to 60 hrs): Neither sulphonamide nor pitavastatin had a negative impact on cell viability
cell viability (MDCK cells; up to 10 μM and 60 hours of contact): At least 91%
increase in HA yield at 24 hours, compound added at T=2, 4 [2]: approximately 4 fold
increase in HA yield at 24 hours, compound added at T=6 [2]: no significant increase
increase in HA yield at 24 hours, compound added at time of infection (T=0) [2]: approximately 4 fold
HA yield enhancement, low-expressing B strain [3]: boosts HA yield
HA yield enhancement, high-expressing A strain [4]: much greater enhancement in HA yield; also recorded: Only AFZ077 enhanced yield
HA yield over original yields, high ICD format with AFZ treatment (A and B strains): ~4 fold
increase in HA yield over the controls (B/Massachusetts/02/2012): no significant increase in HA yield
HA enhancing effect in presence of serotonin (5HT) (5HT7 receptor): can be abrogated by adding serotonin (5HT)
loss of compound in media or media+MDCK cells [5]: No loss of compounds was observed

CC(O)(CCO)CC(=O)O (centres unmarked) [MEV, Mevalonate]
cellular cholesterol levels, in combination with BYF (cellular cholesterol; MEV plus BYF): does not replenish cellular cholesterol levels
cellular cholesterol levels, compound alone (cellular cholesterol; normalized to DMSO): no effect on cellular cholesterol levels
HA yield enhancement, in combination with BYF [6]: reduces HA yield enhancement
effect on cell viability (MDCK 33016PF cells): no negative effect on cell viability

COc1ccc(C2=N[C@@H](c3ccc(Cl)cc3)[C@@H](c3ccc(Cl)cc3)N2C(=O)N2CCNC(=O)C2)c(OC(C)C)c1 [Nutlin-3]
copies of viral genome in the supernatant compared with control (influenza H3N2 virus): up to nineteen times more copies of viral genome

CC(C)c1nc(N(C)S(C)(=O)=O)nc(-c2ccc(F)cc2)c1/C=C/[C@@H](O)C[C@@H](O)CC(=O)O [Rosuvastatin, bis[(E)-7-[4-(4-fluorophenyl)-6-isopropyl-2-[methyl(methylsulfonyl)amino]pyrimidin-5-yl](3R,5S)-3,5-dihydroxyhept-6-enoic acid]]
HA yield compared with other commercially available statins (Subtype A/Texas X223A): did not produce the yield potential of comparative statins

CC(C)n1c(/C=C/[C@@H](O)C[C@@H](O)CC(=O)O)c(-c2ccc(F)cc2)c2ccccc21 [fluvastatin, (3R, 5S, 6E)-7-[3-(4-fluorophenyl)-1-(propan-2-yl)-1H-indol-2-yl]-3,4-dihydroxyhept-6-enoic acid]
HA yield compared with pitavastatin (Subtype AH3N2): performed even better than pitavastatin
